From US9428456B2, “1-[m-carboxamido(hetero)aryl-methyl]-heterocyclyl-carboxamide derivatives” (Actelion Pharmaceuticals Ltd., priority 2012, dated 2016)

These molecules were tested against CXCR7 (Homo sapiens (Human), UniProt P25106) (assay: PathHunter CHO-K1 CXCR7 b-arrestin assay (agonistic activity)). Settings: PathHunter CHO-K1 CXCR7 b-arrestin cell line.
Type: cell-based
How it was run: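 CHO-K1 cells co-expressing ProLink-tagged CXCR7 and EA-fused β-arrestin 2 (enzyme fragment complementation); compounds added in HBSS/20 mM HEPES/0.2% BSA after 3–4 h in OPTIMEM, 90 min at 37 °C. Chemiluminescent β-gal signal read after 1 h detection at room temperature; EC50 reported as geometric mean of several measurements.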

Sequence of CXCR7 (P25106 whole entry): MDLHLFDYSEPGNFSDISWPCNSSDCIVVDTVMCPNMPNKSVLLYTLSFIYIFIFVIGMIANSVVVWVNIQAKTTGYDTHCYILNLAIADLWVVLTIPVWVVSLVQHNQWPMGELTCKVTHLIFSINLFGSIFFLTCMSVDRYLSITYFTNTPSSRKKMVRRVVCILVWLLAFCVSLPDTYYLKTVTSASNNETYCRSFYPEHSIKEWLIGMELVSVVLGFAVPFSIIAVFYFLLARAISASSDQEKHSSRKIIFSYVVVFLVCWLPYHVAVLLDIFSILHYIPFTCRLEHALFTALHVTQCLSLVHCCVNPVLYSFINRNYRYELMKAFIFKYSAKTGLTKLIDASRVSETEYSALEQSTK
Sequence of CXCR7 (P32121 whole entry partner): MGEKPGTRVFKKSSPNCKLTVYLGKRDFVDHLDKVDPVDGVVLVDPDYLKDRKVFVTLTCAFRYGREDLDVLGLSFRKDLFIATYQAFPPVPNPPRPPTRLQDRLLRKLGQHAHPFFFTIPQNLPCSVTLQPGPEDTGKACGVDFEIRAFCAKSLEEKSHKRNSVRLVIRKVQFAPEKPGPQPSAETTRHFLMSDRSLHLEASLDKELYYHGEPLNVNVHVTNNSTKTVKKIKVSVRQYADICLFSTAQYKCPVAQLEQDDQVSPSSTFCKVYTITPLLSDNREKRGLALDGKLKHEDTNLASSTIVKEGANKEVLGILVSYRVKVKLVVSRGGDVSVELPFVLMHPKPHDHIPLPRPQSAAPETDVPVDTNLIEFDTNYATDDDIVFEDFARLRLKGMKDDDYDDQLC

SMILES	EC50 [nM]
Cc1ncncc1C(=O)Nc1cccc(CN2CCC(C(=O)NC3CCCCC3)CC2)c1 [Example 1.086]	527
O=C(Nc1cccc(CN2CCC(C(=O)NC3CCCCC3)CC2)c1)c1ncccn1 [Example 1.087]	36
Cc1cc(C(=O)Nc2cccc(CN3CCC(C(=O)NC4CCCCC4)CC3)c2)nc(N(C)C)n1 [Example 1.088]	24
O=C(Nc1cccc(CN2CCC(C(=O)NC3CCCCC3)CC2)c1)c1cc(F)c(Cl)nc1Cl [Example 1.089]	15
O=C(Nc1cccc(CN2CCC(C(=O)NC3CCCCC3)CC2)c1)c1cnc(Cl)c(Cl)c1 [Example 1.090]	6
O=C(Nc1cccc(CN2CCC(C(=O)NC3CCCCC3)CC2)c1)c1ccc(Cl)nc1Cl [Example 1.091]	12
COc1ccc(C(=O)Nc2cccc(CN3CCC(C(=O)NC4CCCCC4)CC3)c2)cn1 [Example 1.092]	3
O=C(Nc1cccc(CN2CCC(C(=O)NC3CCCCC3)CC2)c1)c1cnc2cc[nH]c2c1 [Example 1.093]	149
O=C(Nc1cccc(CN2CCC(C(=O)NC3CCCCC3)CC2)c1)c1ccc(Cl)cn1 [Example 1.094]	1
O=C(Nc1cccc(CN2CCC(C(=O)NC3CCCCC3)CC2)c1)c1ccccc1OC(F)(F)F [Example 1.095]	5
CN(C)c1ccc(C(=O)Nc2cccc(CN3CCC(C(=O)NC4CCCCC4)CC3)c2)cc1 [Example 1.096]	40
CCc1ccc(C(=O)Nc2cccc(CN3CCC(C(=O)NC4CCCCC4)CC3)c2)cc1 [Example 1.097]	5
CC(C)c1ccc(C(=O)Nc2cccc(CN3CCC(C(=O)NC4CCCCC4)CC3)c2)cc1 [Example 1.098]	12
Cc1ccccc1C(=O)Nc1cccc(CN2CCC(C(=O)NC3CCCCC3)CC2)c1 [Example 1.099]	19
Cc1cccc(C(=O)Nc2cccc(CN3CCC(C(=O)NC4CCCCC4)CC3)c2)c1 [Example 1.100]	3
Cc1ccc(C(=O)Nc2cccc(CN3CCC(C(=O)NC4CCCCC4)CC3)c2)cc1 [Example 1.101]	4
O=C(Nc1cccc(CN2CCC(C(=O)NC3CCCCC3)CC2)c1)c1ccccc1F [Example 1.102]	4
O=C(Nc1cccc(CN2CCC(C(=O)NC3CCCCC3)CC2)c1)c1cccc(C(F)(F)F)c1 [Example 1.104]	5
O=C(Nc1cccc(CN2CCC(C(=O)NC3CCCCC3)CC2)c1)c1ccc(C(F)(F)F)cc1 [Example 1.105]	5
N#Cc1cccc(C(=O)Nc2cccc(CN3CCC(C(=O)NC4CCCCC4)CC3)c2)c1 [Example 1.106]	12
N#Cc1ccc(C(=O)Nc2cccc(CN3CCC(C(=O)NC4CCCCC4)CC3)c2)cc1 [Example 1.107]	8
Cc1cccc(C)c1C(=O)Nc1cccc(CN2CCC(C(=O)NC3CCCCC3)CC2)c1 [Example 1.108]	633
Cc1cccc(C(=O)Nc2cccc(CN3CCC(C(=O)NC4CCCCC4)CC3)c2)c1C [Example 1.109]	40
Cc1ccc(C)c(C(=O)Nc2cccc(CN3CCC(C(=O)NC4CCCCC4)CC3)c2)c1 [Example 1.110]	8
Cc1ccc(C(=O)Nc2cccc(CN3CCC(C(=O)NC4CCCCC4)CC3)c2)c(C)c1 [Example 1.111]	4
Cc1cc(C)cc(C(=O)Nc2cccc(CN3CCC(C(=O)NC4CCCCC4)CC3)c2)c1 [Example 1.112]	21

SMILES	EC50 [nM]
Cc1ccc(C(=O)Nc2cccc(CN3CCC(C(=O)NC4CCCCC4)CC3)c2)cc1C [Example 1.113]	7
Cc1c(F)cccc1C(=O)Nc1cccc(CN2CCC(C(=O)NC3CCCCC3)CC2)c1 [Example 1.114]	13
Cc1cc(F)ccc1C(=O)Nc1cccc(CN2CCC(C(=O)NC3CCCCC3)CC2)c1 [Example 1.115]	5
Cc1ccc(F)c(C(=O)Nc2cccc(CN3CCC(C(=O)NC4CCCCC4)CC3)c2)c1 [Example 1.116]	6
Cc1cc(F)cc(C(=O)Nc2cccc(CN3CCC(C(=O)NC4CCCCC4)CC3)c2)c1 [Example 1.117]	4
Cc1cc(C(=O)Nc2cccc(CN3CCC(C(=O)NC4CCCCC4)CC3)c2)ccc1F [Example 1.118]	3
Cc1ccc(C(=O)Nc2cccc(CN3CCC(C(=O)NC4CCCCC4)CC3)c2)c(F)c1 [Example 1.119]	6
Cc1c(Cl)cccc1C(=O)Nc1cccc(CN2CCC(C(=O)NC3CCCCC3)CC2)c1 [Example 1.120]	35
Cc1cc(Cl)ccc1C(=O)Nc1cccc(CN2CCC(C(=O)NC3CCCCC3)CC2)c1 [Example 1.121]	5
COc1ccc(C(=O)Nc2cccc(CN3CCC(C(=O)NC4CCCCC4)CC3)c2)cc1C [Example 1.122]	15
COc1ccc(C(=O)Nc2cccc(CN3CCC(C(=O)NC4CCCCC4)CC3)c2)cc1F [Example 1.123]	4
COc1cc(F)cc(C(=O)Nc2cccc(CN3CCC(C(=O)NC4CCCCC4)CC3)c2)c1 [Example 1.124]	5
COc1cc(OC)cc(C(=O)Nc2cccc(CN3CCC(C(=O)NC4CCCCC4)CC3)c2)c1 [Example 1.125]	10
COc1ccc(C(=O)Nc2cccc(CN3CCC(C(=O)NC4CCCCC4)CC3)c2)cc1OC [Example 1.126]	70
O=C(Nc1cccc(CN2CCC(C(=O)NC3CCCCC3)CC2)c1)c1c(F)cccc1F [Example 1.127]	36
O=C(Nc1cccc(CN2CCC(C(=O)NC3CCCCC3)CC2)c1)c1cccc(F)c1F [Example 1.128]	5
O=C(Nc1cccc(CN2CCC(C(=O)NC3CCCCC3)CC2)c1)c1ccc(F)c(F)c1 [Example 1.129]	2
O=C(Nc1cccc(CN2CCC(C(=O)NC3CCCCC3)CC2)c1)c1ccc(Cl)cc1F [Example 1.130]	7
O=C(Nc1cccc(CN2CCC(C(=O)NC3CCCCC3)CC2)c1)c1cc(F)cc(Cl)c1 [Example 1.131]	4
O=C(Nc1cccc(CN2CCC(C(=O)NC3CCCCC3)CC2)c1)c1ccc(Cl)c(F)c1 [Example 1.132]	10
O=C(Nc1cccc(CN2CCC(C(=O)NC3CCCCC3)CC2)c1)c1ccc(F)cc1Cl [Example 1.133]	7
O=C(Nc1cccc(CN2CCC(C(=O)NC3CCCCC3)CC2)c1)c1ccc(C(F)(F)F)cc1F [Example 1.134]	8
O=C(Nc1cccc(CN2CCC(C(=O)NC3CCCCC3)CC2)c1)c1cc(C(F)(F)F)ccc1F [Example 1.135]	7
O=C(Nc1cccc(CN2CCC(C(=O)NC3CCCCC3)CC2)c1)c1cc(C(F)(F)F)cc(C(F)(F)F)c1 [Example 1.136]	43
O=C(Nc1cccc(CN2CCC(C(=O)NC3CCCCC3)CC2)c1)c1cc(Cl)ccc1Cl [Example 1.137]	8
O=C(Nc1cccc(CN2CCC(C(=O)NC3CCCCC3)CC2)c1)c1ccc(Cl)cc1Cl [Example 1.138]	6

SMILES	EC50 [nM]
O=C(Nc1cccc(CN2CCC(C(=O)NC3CCCCC3)CC2)c1)c1cc(Cl)cc(Cl)c1 [Example 1.139]	22
O=C(Nc1cccc(CN2CCC(C(=O)NC3CCCCC3)CC2)c1)c1ccc(Cl)c(Cl)c1 [Example 1.140]	5
O=C(Nc1cccc(CN2CCC(C(=O)NC3CCCCC3)CC2)c1)c1cnccn1 [Example 1.141]	2
Cc1cnc(C(=O)Nc2cccc(CN3CCC(C(=O)NC4CCCCC4)CC3)c2)cn1 [Example 1.142]	2
O=C(Nc1cccc(CN2CCC(C(=O)NC3CCCCC3)CC2)c1)c1ccc(Cl)c2c1CCO2 [Example 1.143]	5
CN(C)c1cccc(C(=O)Nc2cccc(CN3CCC(C(=O)NC4CCCCC4)CC3)c2)c1 [Example 1.144]	73
O=C(Nc1cccc(CN2CCC(C(=O)NC3CCCCC3)CC2)c1)c1c(F)cccc1C(F)(F)F [Example 1.145]	425
O=C(Nc1cccc(CN2CCC(C(=O)NC3CCCCC3)CC2)c1)c1cc2cccnc2[nH]1 [Example 1.146]	8
O=C(Nc1cccc(CN2CCC(C(=O)NC3CCCCC3)CC2)c1)c1cncc(C2CC2)c1 [Example 1.147]	5
O=C(Nc1cccc(CN2CCC(C(=O)NC3CCCCC3)CC2)c1)c1ccc(CCF)cc1 [Example 1.148]	5
O=C(Nc1cccc(CN2CCC(C(=O)NC3CCCCC3)CC2)c1)C1CC1 [Example 1.149]	81
O=C(Nc1cccc(CN2CCC(C(=O)NC3CCCCC3)CC2)c1)C1CCC1 [Example 1.150]	25
O=C(Nc1cccc(CN2CCC(C(=O)NC3CCCCC3)CC2)c1)C1CCCCC1 [Example 1.151]	10
O=C(Nc1cccc(CN2CCC(C(=O)NC3CCCCC3)CC2)c1)C1CCCCCC1 [Example 1.152]	10
O=C(Nc1cccc(CN2CCC(C(=O)NC3CCCCC3)CC2)c1)c1ccc(C(F)(F)C(F)(F)F)cc1 [Example 1.153]	10
CCc1cncc(C(=O)Nc2cccc(CN3CCC(C(=O)NC4CCCCC4)CC3)c2)c1 [Example 1.154]	2
O=C(Nc1cccc(CN2CCC(C(=O)NC3CCCCC3)CC2)c1)c1cc(C(F)(F)F)ccn1 [Example 1.155]	12
O=C(Nc1cccc(CN2CCC(C(=O)NC3CCCCC3)CC2)c1)c1ccc(F)cc1 [Example 1.156]	2
O=C(Nc1cc(CN2CCC(C(=O)NC3CCCCC3)CC2)ccc1Cl)c1ccncn1 [Example 1.157]	2
Cc1ccc(C(=O)Nc2cc(CN3CCC(C(=O)NC4CCCCC4)CC3)ccc2Cl)s1 [Example 1.158]	14
COc1ccc(C(=O)Nc2cc(CN3CCC(C(=O)NC4CCCCC4)CC3)ccc2Cl)cc1 [Example 1.159]	14
O=C(Nc1cc(CN2CCC(C(=O)NC3CCCCC3)CC2)ccc1Cl)c1ccc(Cl)cc1 [Example 1.160]	5
O=C(Nc1cccc(CN2CCC(C(=O)NC3CCCCC3)CC2)c1Cl)c1ccc(Cl)cc1 [Example 1.162]	2780
Cc1ccc(C(=O)Nc2cccc(CN3CCC(C(=O)NC4CCCCC4)CC3)c2Cl)s1 [Example 1.163]	386
